Data taken from patent US9107964B2, “Radioactive fluorine-labeled compound” (NIHON MEDI-PHYSICS CO., LTD., priority 2011, dated 2015).

Tests used:
[1] = system: mouse-derived breast cancer cell line (EMT6) tumor-bearing model mice; assay: Measurement of SUV within tumor and calculation of tumor/normal tissue ratio (Example 11); conditions: 60 minutes after administration
Protocol: The tumor-bearing model mouse thus prepared was placed under isoflurane anesthesia, and about 20 MBq of these sample solutions was administered via a tail vein. static imaging was carried out using a PET system for animals (model: eXplore Vista, manufactured by GE) at 60 minutes after administration. […] Data thus collected were reconstituted by the OSEM method to thus form an image, and a coronal tomographic image and an axial tomographic image were formed using image analysis software.
The maximum value for SUV within the tumor was measured using the axial tomographic images acquired in the Example 10. For all slice planes of an axial tomographic image where the tumor was visualized, a region of interest (hereinafter, called an ROI) was set for the entire tumor and measured. The axial tomographic image was formed from 61 slice planes, and the SUV that was the highest among the measured slice planes was defined as a maximum value for SUV 60 minutes after administration (SUV maximum value in tumor). […] The average value for signal intensity within the ROI was determined, and the average value for values measured for the slice planes was defined as the average value for SUV in normal tissue. The tumor/normal tissue ratio was calculated using the following equation (1) and used as a […] indicator with respect to contrast between the tumor and normal tissue.

[2] = system: hypoxic region of EMT6 tumor (pimonidazole-positive site); assay: Localization of accumulation within tumor by autoradiography versus pimonidazole immunohistochemical staining; format: in vivo, mouse (Balb/c nu/nu); conditions: autoradiography and immunohistochemical staining of the same tumor section
Protocol: In order to evaluate whether or not the compound related to the present invention could visualize a hypoxic region of a tumor, the following experiment was carried out using compounds 1 to 3 and [^18F]FMISO.
Localization of accumulation of each of the labeled compounds within a tumor was confirmed by autoradiography. After PET imaging of a tumor-bearing model mouse prepared by the method of […] was completed, it was sacrificed by blood-letting by cardiocentesis, immediately thereafter the tumor was sampled, and tissue sections (thickness: 10 μm) were prepared using a cryostat (model: CM3050, manufactured by Leica). […] After exposing an imaging plate to this tumor tissue section for 8 to 10 hours, an image was captured using a bioimaging analyzer (model: BAS-2500, manufactured by FUJIFILM). The image thus captured was subjected to image analysis using image analysis software.
Separately, as a method for confirming a hypoxic region within a tumor, the same section after decay of radioactivity was subjected to immunohistochemical staining using pimonidazole that is a hypoxic marker, by the following procedure. […]

[3] = system: hypoxic region of EMT6 tumor (pimonidazole-positive area); assay: Correlation between autoradiographic signal intensity (PSL value) and pimonidazole-positive area (Example 13); format: in vivo, mouse (Balb/c nu/nu); conditions: tumor tissue sections after PET imaging
Protocol: In order to evaluate whether or not the compound related to the present invention can quantitatively visualize a hypoxic region of a tumor, the following experiment was carried out using compounds 1 to 3 and [^18F]FMISO.
Using a microscope system (model: BZ-9000, Keyence Corporation) a high magnification image of a pimonidazole-positive site was acquired using the entire image of a pathology image obtained by immunohistochemical staining in the Example 12 and a 10× objective lens. The high magnification image was formed with respect to a randomly selected image region. At the same time the image acquisition site was recorded as a navigation image by use of the navigation function of the microscope system. The acquired high magnification image was subjected to image processing, and a pimonidazole-positive area present in the high magnification image was determined.
The autoradiographic image and the stained image of each labeled compound used were those acquired in the Example 12. The resolution of the navigation image was made to match the resolution of the autoradiographic image, and the geometrical positions of two images were aligned using image analysis software.
In the autoradiographic image, an ROI was set for the site that coincided with the high magnification image acquisition site, and the PSL value (Photo-Stimulated Luminescence value) of the ROI was determined. Furthermore, an ROI was set for a site of the same image that contained no sample, and the PSL value thereof was defined as the background. The PSL value of the background was subtracted from the PSL value of the high magnification image acquisition site to obtain the net PSL value. The hypoxic marker pimonidazole-positive area was plotted on the abscissa and the PSL value in the autoradiographic image on the ordinate, and the correlation factor was determined. This series of operations was carried out for each of the labeled compounds.

[4] = system: EMT6 tumor-bearing model mice; assay: Biodistribution in tumor and organs of tumor-bearing mouse (Example 14); format: in vivo, mouse (Balb/c nu/nu); conditions: mean
Protocol: The biodistribution of compounds 1 to 3 and [^18F]FMISO in a tumor and each of the organs of a tumor-bearing mouse was measured.
Tumor-bearing model mice used in this experiment were the same as those prepared in Example 10, and 3 or 4 cases that had attained a tumor volume of 200 to 400 mm^3 were selected from each group. The tumor-bearing model mouse was placed under isoflurane anesthesia, pimonidazole that is a hypoxic marker, was administered via a tail vein, and at 10 minutes thereafter, the respective labeled compound was administered. The tumor-bearing model mouse was sacrificed at 60 minutes and 120 minutes after administration. All of the tumor-bearing model mice were sacrificed by blood-letting from the abdominal aorta or by cardiocentesis, and dissection was carried out immediately thereafter. Other than the tumor, the blood, heart, lung, stomach, liver, gallbladder, kidney, small intestine and large intestine, muscle, and urine were sampled, and the other tissues were defined as the remaining whole body. After the weight of each tissue sampled was measured, the amount of radioactivity of the tissue was measured using a gamma counter, and the biodistribution of each of the labeled compounds was compared by converting it into % ID/g (% injection dose/g organ) of each tissue.
In order to examine a hypoxic state within the tumor, immunohistochemical staining of the sample tumor was carried out so as to ascertain whether or not the interior of the tumor was hypoxic. The sampled tumor was fixed using a 20% formalin buffer, and a paraffin block was prepared using an automatic paraffin-embedding apparatus (model: VIP-5-Jr-J0, Sakura Finetek). A slice (thickness: 3 μm) was prepared by means of a microtome (model: Tissue-Tek Feather Trustome, Sakura Finetek). Immunohistochemical staining was carried out by the same method as in Example 12.

[5] = 60 minutes after administration
[6] = 120 minutes after administration

## O=[N+]([O-])c1nccn1CC(O)C[18F] (centres unmarked) [[^18F]FMISO, [^18F]fluoromisonidazole, reference compound]
[1]; about 20 MBq via tail vein, axial PET image, ROI entire tumor
  SUV maximum value (in tumor): 0.98
[1]; SUV maximum in tumor versus average SUV of left body side (lung and muscle)
  Tumor/normal tissue ratio: 2.03
[2]
  Coincidence of accumulation site with localization of pimonidazole (hypoxic marker): did not visually coincide
[3]
  Correlation coefficient (pimonidazole-positive area vs PSL value in autoradiographic image): 0.55
[4]; [5]
  Blood: 4.45 % ID/g
  Gall bladder: 12.92 % ID/g
  Heart: 5.12 % ID/g
  Kidney: 8.52 % ID/g
  Large intestine: 13.76 % ID/g
  Liver: 5.84 % ID/g
  Lung: 4.41 % ID/g
  Muscle: 3.80 % ID/g
  Small intestine: 5.76 % ID/g
  Stomach: 4.17 % ID/g
  T/B (tumor/blood ratio): 1.06
  T/M (tumor/muscle ratio): 1.24
  Tumor: 4.71 % ID/g
  Urine: 34.98 % ID
[4]; [6]
  Blood: 2.26 % ID/g
  Gall bladder: 43.43 % ID/g
  Heart: 3.33 % ID/g
  Kidney: 3.89 % ID/g
  Large intestine: 21.16 % ID/g
  Liver: 3.85 % ID/g
  Lung: 2.69 % ID/g
  Muscle: 2.29 % ID/g
  Small intestine: 4.63 % ID/g
  Stomach: 1.85 % ID/g
  T/B (tumor/blood ratio): 1.91
  T/M (tumor/muscle ratio): 1.88
  Tumor: 4.28 % ID/g
  Urine: 41.45 % ID
